According to patent US20150191469A1, “COMPOUNDS AND METHODS FOR TREATING HIV” (priority 2012, published 2015):
Like-named read-outs stand apart in the source and are kept apart here.

Test system: HIV
Test: MT4 assay: antiviral HIV activity (cell protection, cell titer glo readout at 96 hours)
Assay type: cell-based
Settings: MT4 cells, cell titer glo readout at 96 hours, 10 point dose response, read-out: HIV MT4 Assay IC50
How it was run: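 MT-4 cells infected with HIV, with inhibition readout by CellTiter-Glo luminescence at 96 h relative to no-compound control. Cytotoxicity measured in parallel under the same conditions. IC50 from a 10-point, 3-4-fold dilution series spanning >1000-fold, fitted with a four-parameter logistic equation.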

[1] = Human immunodeficiency virus 1, MT4, 96 h

| SMILES | IC50 [1] [nM] | IC50 [nM] |
| --- | --- | --- |
| Cc1nc2c(cc(-c3cc(NCCC(C)(C)C)ncn3)n2C)c(-c2cc(F)c3c(c2C)CCCO3)c1[C@H](OC(C)(C)C)C(=O)O [Example 366] | 15.2 |  |
| Cc1nc2c(cc(-c3nsc(N4CCNCC4)n3)n2C)c(-c2cc(F)c3c(c2C)CCCO3)c1[C@H](OC(C)(C)C)C(=O)O [Example 367] | 17.5 |  |
| Cc1nc2c(cc(-c3nc(N4CCCCC4)ns3)n2C)c(-c2cc(F)c3c(c2C)CCCO3)c1[C@H](OC(C)(C)C)C(=O)O [Example 368] | 39.5 |  |
| Cc1nc2c(cc(-c3nc(N4CCN(C)CC4)ns3)n2C)c(-c2cc(F)c3c(c2C)CCCO3)c1[C@H](OC(C)(C)C)C(=O)O [Example 369] | 11.3 |  |
| Cc1nc2c(cc(-c3nsc(N4CCCCC4)n3)n2C)c(-c2cc(F)c3c(c2C)CCCO3)c1[C@H](OC(C)(C)C)C(=O)O [Example 370] | 9.5 |  |
| Cc1nc2c(cc(-c3nsc(N4CCN(C)CC4)n3)n2C)c(-c2cc(F)c3c(c2C)CCCO3)c1[C@H](OC(C)(C)C)C(=O)O [Example 371] | 8.4 |  |
| Cc1nc2c(cc(-c3nc(N4CCC(C)CC4)ns3)n2C)c(-c2cc(F)c3c(c2C)CCCO3)c1[C@H](OC(C)(C)C)C(=O)O [Example 372] | 36.2 |  |
| Cc1nc2c(cc(-c3nsc(N4CCN(C5CC5)CC4)n3)n2C)c(-c2cc(F)c3c(c2C)CCCO3)c1[C@H](OC(C)(C)C)C(=O)O [Example 373] | 5.2 |  |
| Cc1nc2c(cc(-c3nsc(N4CCC(C)CC4)n3)n2C)c(-c2cc(F)c3c(c2C)CCCO3)c1[C@H](OC(C)(C)C)C(=O)O [Example 374] | 10.8 |  |
| Cc1nc2c(cc(-c3nsc(N4CCN(C5CCOCC5)CC4)n3)n2C)c(-c2cc(F)c3c(c2C)CCCO3)c1[C@H](OC(C)(C)C)C(=O)O [Example 375] | 1.5 |  |
| Cc1nc2c(cc(-c3nnc(N4CCN(C5CCOCC5)CC4)s3)n2C)c(-c2cc(F)c3c(c2C)CCCO3)c1[C@H](OC(C)(C)C)C(=O)O [Example 376] | 14.4 |  |
| Cc1nc2c(cc(-c3nc(N4CCC5(CC4)OCCO5)ns3)n2C)c(-c2cc(F)c3c(c2C)CCCO3)c1[C@H](OC(C)(C)C)C(=O)O [Example 377] | 5.9 |  |
| Cc1nc2c(cc(-c3nc(N4CCN(C5CCOCC5)C[C@H]4C)ns3)n2C)c(-c2cc(F)c3c(c2C)CCCO3)c1[C@H](OC(C)(C)C)C(=O)O [Example 378] | 4.1 |  |
| Cc1nc2c(cc(-c3nc(N4CCN(C5CCOCC5)CC4)ns3)n2C)c(-c2cc(F)c3c(c2C)CCCO3)c1[C@H](OC(C)(C)C)C(=O)O [Example 379] |  | 208 |
| Cc1nc2c(cc(-c3nc(N4CCC(N5CCOCC5)CC4)ns3)n2C)c(-c2cc(F)c3c(c2C)CCCO3)c1[C@H](OC(C)(C)C)C(=O)O [Example 380] | 1.6 |  |
| Cc1nc2c(cc(-c3nc(N4CCN5CCC[C@@H]5C4)ns3)n2C)c(-c2cc(F)c3c(c2C)CCCO3)c1[C@H](OC(C)(C)C)C(=O)O [Example 381] | 2.7 |  |
| Cc1nc2c(cc(-c3nc(N4CCN5CCC[C@H]5C4)ns3)n2C)c(-c2cc(F)c3c(c2C)CCCO3)c1[C@H](OC(C)(C)C)C(=O)O [Example 383] | 4.1 |  |
| Cc1nc2c(cc(-c3nc(N4CCN(C(=O)N5CCCCC5)CC4)ns3)n2C)c(-c2cc(F)c3c(c2C)CCCO3)c1[C@H](OC(C)(C)C)C(=O)O [Example 384] | 5.1 |  |
| Cc1nc2c(cc(-c3nc(N4CCN(C5CC5)CC4)ns3)n2C)c(-c2cc(F)c3c(c2C)CCCO3)c1[C@H](OC(C)(C)C)C(=O)O [Example 385] | 10 |  |
| Cc1nc2c(cc(-c3nc(N4CCN(CC5CC5)CC4)ns3)n2C)c(-c2cc(F)c3c(c2C)CCCO3)c1[C@H](OC(C)(C)C)C(=O)O [Example 386] | 5.9 |  |
| Cc1nc2c(cc(-c3nc(N4CCC(N5CCCCC5)CC4)ns3)n2C)c(-c2cc(F)c3c(c2C)CCCO3)c1[C@H](OC(C)(C)C)C(=O)O [Example 387] | 6.9 |  |
| Cc1nc2c(cc(-c3nc(N4CCN(C(=O)N5CCOCC5)CC4)ns3)n2C)c(-c2cc(F)c3c(c2C)CCCO3)c1[C@H](OC(C)(C)C)C(=O)O [Example 388] | 9.3 |  |
| Cc1nc2c(cc(-c3nc(N4CCC(N5CCN(C)CC5)CC4)ns3)n2C)c(-c2cc(F)c3c(c2C)CCCO3)c1[C@H](OC(C)(C)C)C(=O)O [Example 389] | 5.6 |  |
| Cc1nc2c(cc(-c3nc(N4CCN(CC5CCOCC5)CC4)ns3)n2C)c(-c2cc(F)c3c(c2C)CCCO3)c1[C@H](OC(C)(C)C)C(=O)O [Example 390] | 5.4 |  |
| Cc1nc2c(cc(-c3nc(N4CCN(C(=O)C5CCOCC5)CC4)ns3)n2C)c(-c2cc(F)c3c(c2C)CCCO3)c1[C@H](OC(C)(C)C)C(=O)O [Example 391] | 14.2 |  |
| Cc1nc2c(cc(-c3nc(N4CCN(S(=O)(=O)N5CCOCC5)CC4)ns3)n2C)c(-c2cc(F)c3c(c2C)CCCO3)c1[C@H](OC(C)(C)C)C(=O)O [Example 392] | 4.9 |  |
| Cc1nc2c(cc(-c3nc(N4CCN(S(=O)(=O)C5CCOCC5)CC4)ns3)n2C)c(-c2cc(F)c3c(c2C)CCCO3)c1[C@H](OC(C)(C)C)C(=O)O [Example 393] | 4.2 |  |
| Cc1nc2c(cc(-c3nc(N4CCN(S(=O)(=O)N5CCCCC5)CC4)ns3)n2C)c(-c2cc(F)c3c(c2C)CCCO3)c1[C@H](OC(C)(C)C)C(=O)O [Example 394] | 16.4 |  |

Next, values leading:

| IC50 [1] [nM] | IC50 [nM] | SMILES |
| --- | --- | --- |
| 13.1 |  | COC1CCN(c2nsc(-c3cc4c(-c5cc(F)c6c(c5C)CCCO6)c([C@H](OC(C)(C)C)C(=O)O)c(C)nc4n3C)n2)CC1 [Example 395] |
| 15.5 |  | Cc1nc2c(cc(-c3nc(N4CCC(N(C)C)CC4)ns3)n2C)c(-c2cc(F)c3c(c2C)CCCO3)c1[C@H](OC(C)(C)C)C(=O)O [Example 396] |
| 13.6 |  | Cc1nc2c(cc(-c3nc(N4CCCN(C)CC4)ns3)n2C)c(-c2cc(F)c3c(c2C)CCCO3)c1[C@H](OC(C)(C)C)C(=O)O [Example 398] |
| 28.7 |  | Cc1nc2c(cc(-c3nc(N4CCC(F)CC4)ns3)n2C)c(-c2cc(F)c3c(c2C)CCCO3)c1[C@H](OC(C)(C)C)C(=O)O [Example 399] |
| 6.3 |  | Cc1nc2c(cc(-c3nc(N4CCN(C(C)C)CC4)ns3)n2C)c(-c2cc(F)c3c(c2C)CCCO3)c1[C@H](OC(C)(C)C)C(=O)O [Example 400] |
| 12.8 |  | Cc1nc2c(cc(-c3nc(N4CC[C@@H](N(C)C)C4)ns3)n2C)c(-c2cc(F)c3c(c2C)CCCO3)c1[C@H](OC(C)(C)C)C(=O)O [Example 401] |
| 15 |  | Cc1nc2c(cc(-c3nc(N4CCC(N5CCCC5)CC4)ns3)n2C)c(-c2cc(F)c3c(c2C)CCCO3)c1[C@H](OC(C)(C)C)C(=O)O [Example 402] |
| 12.9 |  | Cc1nc2c(cc(-c3nc(N4CCC4)ns3)n2C)c(-c2cc(F)c3c(c2C)CCCO3)c1[C@H](OC(C)(C)C)C(=O)O [Example 403] |
| 12.8 |  | COC[C@@H]1CCCN1c1nsc(-c2cc3c(-c4cc(F)c5c(c4C)CCCO5)c([C@H](OC(C)(C)C)C(=O)O)c(C)nc3n2C)n1 [Example 404] |
| 2.7 |  | Cc1nc2c(cc(-c3nc(N4CCN(CCN5CCOCC5)CC4)ns3)n2C)c(-c2cc(F)c3c(c2C)CCCO3)c1[C@H](OC(C)(C)C)C(=O)O [Example 405] |
| 39.2 |  | Cc1nc2c(cc(-c3nc(NCCS(C)(=O)=O)ns3)n2C)c(-c2cc(F)c3c(c2C)CCCO3)c1[C@H](OC(C)(C)C)C(=O)O [Example 406] |
| 25.4 |  | Cc1nc2c(cc(-c3nc(NC4CCOCC4)ns3)n2C)c(-c2cc(F)c3c(c2C)CCCO3)c1[C@H](OC(C)(C)C)C(=O)O [Example 407] |
| 2.7 |  | Cc1nc2c(cc(-c3csc(N4CCN(C5CCOCC5)CC4)n3)n2C)c(-c2cc(F)c3c(c2C)CCCO3)c1[C@H](OC(C)(C)C)C(=O)O [Example 408] |
| 17 |  | Cc1nc2c(cc(/C=C/C(=O)NCC3CCCCC3)n2C)c(-c2cc(F)c3c(c2C)CCCO3)c1[C@H](OC(C)(C)C)C(=O)O [Example 414] |
| 40.1 |  | Cc1nc2c(cc(/C=C/C(=O)NCC3CC3)n2C)c(-c2cc(F)c3c(c2C)CCCO3)c1[C@H](OC(C)(C)C)C(=O)O [Example 415] |
| 26.7 |  | Cc1nc2c(cc(/C=C/C(=O)NCCC(C)(C)C)n2C)c(-c2cc(F)c3c(c2C)CCCO3)c1[C@H](OC(C)(C)C)C(=O)O [Example 416] |
| 33.7 |  | Cc1nc2c(cc(/C=C/C(=O)NCc3ccc(F)cc3)n2C)c(-c2cc(F)c3c(c2C)CCCO3)c1[C@H](OC(C)(C)C)C(=O)O [Example 417] |
| 3440 |  | Cc1nc2c(cc(/C=C/C(=O)NCCO)n2C)c(-c2cc(F)c3c(c2C)CCCO3)c1[C@H](OC(C)(C)C)C(=O)O [Example 418] |
| 3240 |  | Cc1nc2c(cc(/C=C/C(=O)NCCN3CCCC3=O)n2C)c(-c2cc(F)c3c(c2C)CCCO3)c1[C@H](OC(C)(C)C)C(=O)O [Example 419] |
| 7.6 |  | Cc1ccc(-c2c([C@H](OC(C)(C)C)C(=O)O)c(C)nc3c2cc(-c2ccnc(-c4ccc5c(cnn5C)c4)c2)n3C)cc1 [Example 421] |
| 1.5 |  | Cc1nc2c(cc(-c3ccnc(-c4ccc5c(cnn5C)c4)c3)n2C)c(-c2ccc3c(c2Cl)NCCO3)c1[C@H](OC(C)(C)C)C(=O)O [Example 422] |
| 1.8 |  | Cc1nc2c(cc(-c3ccnc(-c4ccc5c(cnn5C)c4)c3)n2C)c(-c2ccc3c(c2C)NCCO3)c1[C@H](OC(C)(C)C)C(=O)O [Example 423] |
| 46.4 |  | Cc1nc2c(cc(-c3ccnc(-c4ccc5c(cnn5C)c4)c3)n2C)c(-c2ccccc2)c1[C@H](OC(C)(C)C)C(=O)O [Example 424] |
| 34.5 |  | Cc1nc2c(cc(-c3ccnc(-c4ccc5c(cnn5C)c4)c3)n2C)c(C2=CCCCC2)c1[C@H](OC(C)(C)C)C(=O)O [Example 425] |
| 45000 |  | Cc1nc2c(cc(-c3ccnc(-c4ccc5c(cnn5C)c4)c3)n2C)c(C)c1[C@H](OC(C)(C)C)C(=O)O [Example 426] |
| 2.7 |  | Cc1nc2c(cc(-c3ccnc(-c4ccc5c(cnn5C)c4)c3)n2C)c(-c2ccc3c(c2C)OCCO3)c1[C@H](OC(C)(C)C)C(=O)O [Example 427] |
| 4.6 |  | Cc1nc2c(cc(-c3ccnc(-c4ccc5c(cnn5C)c4)c3)n2C)c(-c2ccc3c(c2)CCCO3)c1[C@H](OC(C)(C)C)C(=O)O [Example 428] |
